Results from ChEMBL document CHEMBL1201862, “PubChem BioAssay data set” (2004).
Active and inactive are the calls of the source.

Legend:
cells = assay type: functional, cell-based
[1] = Luminescence Cell-Based Dose Response HTS to Identify Activators of 5'UTR Stem-Loop Driven Prion Protein mRNA Translation in H4-C Neuroglioblastoma Cells. [Related pubchem assays: 1829 (Project Summary), 1814 (Primary HTS)]; assay type: functional
[2] = Luminescence Cell-Based Dose Response HTS to Identify Activators of Luciferase Translation or Activity in H4-C Neuroglioblastoma Cells. [Related pubchem assays: 1829 (Project Summary), 1814 (Primary HTS)]; assay type: functional
[3] = Luminescence Cell-Based Dose Confirmation HTS to Identify Inhibitors of 5'UTR Stem-Loop Driven Alpha-Synuclein mRNA Translation in H4 Neuroglioblastoma Cells. [Related pubchem assays: 1827 (Project Summary), 1813 (Primary HTS)]; assay type: functional
[4] = Luminescence Cell-Based Dose Response HTS to Identify Inhibitors of 5'UTR Stem-Loop Driven Prion Protein mRNA Translation in H4 Neuroglioblastoma Cells. [Related pubchem assays: 1827 (Project Summary), 1813 (Primary HTS)]; assay type: functional
J774.A1 = experiment: Confirmation of image-based Screening Assay for Inhibitors of Phagocytosis. [Related pubchem assays (depositor defined):AID1029, AID1643]; assay type: functional, cell-based; settings: Mus musculus
[5] = inhibitors of SNCA 5'UTR-driven translation, confirmation, luminescence, H4 neuroglioblastoma cells, dose confirmation (AID 2454); assay type: functional, cell-based;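 further: H4 neuroglioblastoma cells carrying an alpha-synuclein 5'UTR luciferase reporter; potency for inhibition of the luciferase signal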
[6] = Luminescence Cell-Based Dose Retest to Confirm Activators of 5'UTR Stem-Loop Driven Alpha-Synuclein mRNA Translation in H4 Neuroglioblastoma Cells. [Related pubchem assays (depositor defined):AID1813, AID1829]; assay type: functional
[7] = Luminescence Cell-Based Dose HTS Response to Identify Inhibitors of 5'UTR Stem-Loop Driven Prion Protein mRNA Translation in H4-C Neuroglioblastoma Cells. [Related pubchem assays (depositor defined):AID1814, AID1827]; assay type: functional
[8] = luciferase reporter signal reduction – luminescence, H4-C neuroglioblastoma cells, dose response (AID 2458); assay type: functional, cell-based;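 further: H4 neuroglioblastoma cells stably carrying a luciferase reporter gene fusion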
[9] = inhibitors of SNCA 5'UTR-driven reporter translation, confirmation, H4 neuroglioma cells, luminescence (AID 1988); assay type: functional, cell-based
[10] = inhibitors of firefly luciferase expression or activity, dose response, H4 neuroglioma cells, luminescence (AID 1990); assay type: functional, cell-based
[11] = Luminescence Cell-Based Dose Response HTS to Identify Inhibitors of Luciferase Translation or Activity in H4-C Neuroglioblastoma Cells. [Related pubchem assays: 1813 (Primary HTS), 1827 (Project Summary)]; assay type: functional
[12] = molecular target: T1, Replicative DNA helicase DnaB (Mycobacterium tuberculosis, UniProt P9WMR3); experiment: DnaB intein splicing inhibitors, dose response, biochemical, cell-free fluorescence (AID 449749); assay type: functional
T1 sequence (P9WMR3 whole entry): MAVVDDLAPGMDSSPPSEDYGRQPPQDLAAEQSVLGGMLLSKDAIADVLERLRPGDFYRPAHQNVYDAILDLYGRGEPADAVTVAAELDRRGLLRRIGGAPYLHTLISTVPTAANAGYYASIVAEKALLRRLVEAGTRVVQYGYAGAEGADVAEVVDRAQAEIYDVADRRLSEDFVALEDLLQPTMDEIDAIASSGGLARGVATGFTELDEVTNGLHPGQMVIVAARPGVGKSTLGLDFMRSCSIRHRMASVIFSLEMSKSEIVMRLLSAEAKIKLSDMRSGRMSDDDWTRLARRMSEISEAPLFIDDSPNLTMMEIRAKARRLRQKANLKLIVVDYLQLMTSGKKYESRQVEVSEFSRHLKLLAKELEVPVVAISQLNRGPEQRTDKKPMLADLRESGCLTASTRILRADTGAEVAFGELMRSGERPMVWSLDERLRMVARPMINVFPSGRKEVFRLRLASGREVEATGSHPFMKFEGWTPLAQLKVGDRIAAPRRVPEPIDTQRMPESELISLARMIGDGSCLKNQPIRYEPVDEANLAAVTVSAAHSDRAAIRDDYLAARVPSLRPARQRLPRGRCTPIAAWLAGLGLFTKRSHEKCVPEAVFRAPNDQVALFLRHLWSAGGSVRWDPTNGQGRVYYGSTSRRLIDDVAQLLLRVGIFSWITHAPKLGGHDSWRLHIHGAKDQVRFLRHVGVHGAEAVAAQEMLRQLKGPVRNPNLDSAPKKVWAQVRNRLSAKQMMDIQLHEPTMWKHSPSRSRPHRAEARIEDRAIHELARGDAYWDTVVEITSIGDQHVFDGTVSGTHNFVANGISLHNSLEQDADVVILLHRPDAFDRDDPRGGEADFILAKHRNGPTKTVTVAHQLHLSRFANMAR

Coagulation factor XII = molecular target: T2, Coagulation factor XII (Homo sapiens, UniProt P00748); experiment: Factor XIIa Dose Response Confirmation from Single Well HTS. [Related pubchem assays (depositor defined):AID701]; assay type: functional
T2 sequence (P00748 whole entry): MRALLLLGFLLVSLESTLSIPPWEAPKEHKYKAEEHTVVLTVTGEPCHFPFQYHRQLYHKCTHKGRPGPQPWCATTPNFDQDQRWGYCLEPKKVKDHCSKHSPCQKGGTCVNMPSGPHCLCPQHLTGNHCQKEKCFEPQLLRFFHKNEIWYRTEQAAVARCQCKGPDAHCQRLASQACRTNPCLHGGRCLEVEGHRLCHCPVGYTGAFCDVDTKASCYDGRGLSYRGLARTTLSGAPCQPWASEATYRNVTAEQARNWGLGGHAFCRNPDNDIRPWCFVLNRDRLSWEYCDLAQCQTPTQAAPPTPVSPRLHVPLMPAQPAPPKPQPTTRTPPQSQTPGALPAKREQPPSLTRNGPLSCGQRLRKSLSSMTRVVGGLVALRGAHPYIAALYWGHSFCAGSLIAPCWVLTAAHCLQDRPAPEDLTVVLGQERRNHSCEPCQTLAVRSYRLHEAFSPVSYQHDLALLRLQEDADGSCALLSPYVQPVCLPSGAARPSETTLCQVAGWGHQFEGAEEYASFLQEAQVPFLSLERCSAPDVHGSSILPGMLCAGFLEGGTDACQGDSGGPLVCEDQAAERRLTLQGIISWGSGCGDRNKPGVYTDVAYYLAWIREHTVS

Protein RecA = molecular target: T3, Protein RecA (Mycobacterium tuberculosis, UniProt P9WHJ3); experiment: Fluorescence Cell-Free Homogeneous Dose Retest to Identify Inhibitors of RecA-Intein Splicing Activity. [Related pubchem assays (depositor defined):AID2097, AID2223, AID489010, AID492950]; assay type: functional
T3 sequence (P9WHJ3 whole entry): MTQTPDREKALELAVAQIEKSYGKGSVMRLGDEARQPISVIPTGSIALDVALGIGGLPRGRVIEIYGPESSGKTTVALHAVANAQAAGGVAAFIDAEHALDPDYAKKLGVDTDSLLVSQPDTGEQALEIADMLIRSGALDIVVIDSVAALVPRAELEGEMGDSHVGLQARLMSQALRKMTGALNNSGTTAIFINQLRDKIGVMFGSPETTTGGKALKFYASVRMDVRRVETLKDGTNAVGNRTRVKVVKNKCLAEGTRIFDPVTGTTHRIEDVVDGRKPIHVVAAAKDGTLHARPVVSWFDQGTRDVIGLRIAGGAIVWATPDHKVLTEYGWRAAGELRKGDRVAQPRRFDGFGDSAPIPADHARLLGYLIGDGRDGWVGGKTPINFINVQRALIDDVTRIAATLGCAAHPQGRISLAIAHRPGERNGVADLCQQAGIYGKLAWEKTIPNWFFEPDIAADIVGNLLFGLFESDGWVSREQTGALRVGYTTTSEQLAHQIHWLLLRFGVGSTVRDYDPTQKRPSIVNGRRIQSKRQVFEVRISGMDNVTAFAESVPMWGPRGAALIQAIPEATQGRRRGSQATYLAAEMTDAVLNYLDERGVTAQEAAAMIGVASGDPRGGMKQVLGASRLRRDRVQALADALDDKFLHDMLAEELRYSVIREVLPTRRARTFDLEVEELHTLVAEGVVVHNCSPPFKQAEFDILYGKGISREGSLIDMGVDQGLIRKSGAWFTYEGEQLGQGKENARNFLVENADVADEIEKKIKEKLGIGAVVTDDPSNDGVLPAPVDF

[13] = molecular target: Sphingosine 1-phosphate receptor 4 (Homo sapiens, UniProt O95977); experiment: Late-stage fluorescence dose response cell-based assay to identify agonists of the Sphingosine 1-Phosphate Receptor 4 (S1P4): purchased compounds EC50. [Related pubchem assays (depositor defined):AID1509, AID1523, AID1563, AID1686, AID1701, AID1801]; assay type: functional
Sequence of Sphingosine 1-phosphate receptor 4 (O95977 whole entry): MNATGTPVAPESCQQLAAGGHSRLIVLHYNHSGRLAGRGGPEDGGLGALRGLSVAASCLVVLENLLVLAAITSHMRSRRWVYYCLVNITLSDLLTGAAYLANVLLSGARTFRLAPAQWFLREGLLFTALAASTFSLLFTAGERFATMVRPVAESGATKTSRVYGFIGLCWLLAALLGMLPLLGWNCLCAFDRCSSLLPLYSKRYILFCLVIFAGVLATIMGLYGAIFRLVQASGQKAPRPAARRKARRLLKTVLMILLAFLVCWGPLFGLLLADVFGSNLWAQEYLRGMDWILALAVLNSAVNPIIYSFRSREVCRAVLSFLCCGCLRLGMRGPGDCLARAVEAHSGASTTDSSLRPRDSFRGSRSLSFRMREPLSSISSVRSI

N#CC1=C(N)Oc2c(ccc3ccccc23)C1c1cccs1 (configuration not stated)
active: EC50 (cells) 885 nM | EC50 [3] 9280 nM | EC50 [4] 9470 nM | IC50 (J774.A1) 1860 nM | EC50 [5] 739 nM | EC50 [7] 162 nM | EC50 [8] 474 nM | EC50 [9] < 100 nM | EC50 [11] 246 nM
inconclusive: EC50 [1] 162 nM | EC50 [2] 246 nM | EC50 [6] 9280 nM | EC50 [10] 5470 nM

O=C(Oc1cccc(-n2cnnn2)c1)c1ccco1
active: AC50 [12] 23800 nM | IC50 (Coagulation factor XII) 12400 nM | EC50 (Protein RecA) 15100 nM

Cc1ccc(OCC(=O)NC(C)c2ccc(Cl)cc2Cl)c([N+](=O)[O-])n1 (configuration not stated)
inactive: EC50 [13] > 50000 nM
